Results as given in patent EP2878677A1, “Activators of protein phosphatase 5” (Deutsches Zentrum für Neurodegenerative Erkrankungen e.V. …, priority 2013, dated 2015).

Molecular target: T1, PP5 (Rattus norvegicus, UniProt P53042)
T1 construct: The full-length PP5 and its deletion variants were purified and the activity was determined; made in house; host or cells: E. coli BL21-CodonPlus (DE3)-RIL
T1 sequence (P53042 1-499): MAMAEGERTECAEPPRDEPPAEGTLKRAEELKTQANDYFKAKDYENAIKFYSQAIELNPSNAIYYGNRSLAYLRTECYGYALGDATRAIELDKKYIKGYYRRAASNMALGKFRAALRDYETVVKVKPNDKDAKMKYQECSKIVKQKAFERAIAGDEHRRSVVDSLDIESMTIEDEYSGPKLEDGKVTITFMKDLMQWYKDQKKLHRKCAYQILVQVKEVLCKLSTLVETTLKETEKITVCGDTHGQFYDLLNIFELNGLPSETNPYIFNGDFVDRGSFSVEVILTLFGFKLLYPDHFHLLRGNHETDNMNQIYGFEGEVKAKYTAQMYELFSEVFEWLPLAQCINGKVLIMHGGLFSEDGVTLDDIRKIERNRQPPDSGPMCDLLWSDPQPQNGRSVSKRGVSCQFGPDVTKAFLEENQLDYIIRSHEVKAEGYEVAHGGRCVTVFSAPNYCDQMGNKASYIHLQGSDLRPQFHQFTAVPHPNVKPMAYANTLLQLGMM
Test: pNPP-based phosphatase assay with full-length mammalian PP5
Type: biochemical
Method: Cloning and purification of PPH-5, Hsp90/DAF-21, CDC-37, YFP-Hsp90/DAF-21 were performed as described before (Gaiser et al., 2009; Gaiser et al., 2011; Gaiser et al., 2010). The purified human phosphatases PP1, PP2A and PP2B/PP3 were purified as described (Baumgrass et al., 2001; Mondragon et al., 1997; Tung et al., 1985). The expression clones of mammalian PP5, PP5-ΔN165 (166-499) and PP5-ΔC8 (1-491) were generated by PCR from plasmid-DNA containing full-length PP5 from Rattus norvegicus. PCR-products were inserted into the pET28b expression plasmid (Merck, Darmstadt, Germany) and verified by DNA sequencing (GATC Biotech, Konstanz, Germany). Proteins were expressed in BL21-CodonPlus (DE3)-RIL bacteria (Stratagene, LaJolla, USA). Bacterial cultures were grown to an OD600 of 0.8 and induced with 1 mM IPTG. Cells were disrupted using a cell disruption machine (IUL Instruments, Freiburg, Germany) and the lysate was loaded onto a HisTrap FF column (GE Healthcare, Freiburg, Germany). Protein was eluted in a buffer containing 400 mM imidazole. Eluted protein was dialyzed and applied to a ResourceQ anion exchange column (GE Healthcare, Freiburg, Germany). Finally, proteins were subjected to size exclusion chromatography on Superdex 200 PrepGrade gel filtration columns (GE Healthcare, Freiburg, Germany). Protein purity was assessed by SDS-PAGE and the molecular mass was determined by a MALDI-TOF/TOF mass spectrometer (Bruker, Bremen, Germany). Proteins were frozen in liquid nitrogen in 40 mM HEPES/KOH, pH 7.5, 20 mM KCl, 1 mM DTT and stored at -80 °C.
Phosphatase activity was followed by the conversion of para-nitrophenyl phosphate (pNPP) to para-nitophenole and absorption of the product at 410 nm (ε: 15100 cm^-1 M^-1) in a Varian Cary 100 spectrophotometer (Agilent Technologies, Boeblingen, Germany). The reaction was measured in 40 mM HEPES/KOH, 20 mM KCl, 5 mM MnCl2, 1 mM DTT, pH 7.5 and 60 mM pNPP at 20 °C if not indicated otherwise. Phosphatase concentration ranged from 50 to 500 nM in the assay. If indicated, Hsp90/DAF-21 peptide was supplemented in the assay at a concentration of 60 µM.
For characterization of the binding site of the P5SAs, deletion constructs of rat PP5 were generated. […] The full-length PP5 and its deletion variants were purified and the activity was determined in the absence and presence of 10 µM and 100 µM (45 µM in case of P5SA-5) of the substances, respectively (Figure 3A-C).

Structure (SMILES): CN1CCc2c(sc(-n3cccc3)c2CNC(=O)NC23CC4CC(CC(C4)C2)C3)C1 [P5SA-3]
- fold activation (at 714 µM): 7.0 fold

Structure (SMILES): COc1ccc(-c2nc(Cc3ccc(Cl)cc3)no2)cc1OC [P5SA-2]
- fold activation (at 714 µM): 13.7 fold

Structure (SMILES): O=c1cc2nc(-c3ccc(F)cc3)nc(SCc3ccc(Br)cc3)n2[nH]1 [P5SA-4]
- fold activation (at 143 µM): 16.4 fold

Structure (SMILES): FC(F)(F)c1c2c(nc3c(-c4ccc(Cl)cc4)cnn13)CCC2 [P5SA-1]
- fold activation (at 143 µM): 2.7 fold

Structure (SMILES): CNC(=O)c1c(NC(=O)COCC(=O)Nc2sc3c(c2C(=O)NC)CCC3)sc2c1CCC2 [P5SA-5]
- fold activation (at 45 µM): 22.1 fold
- Kd (rat PP5, read-out: binding constant (affinity towards the mammalian protein)): 10 ± 5 µM
